This is an account of results in US20140370067A1, “Method and applicator for the perioperative disinfection of medical instruments to be inserted through non-natural openings” (priority 2012, published 2014).

This data set in a line: Effectiveness and irritation of lower octenidine concentration in gel formulation (statement in description). As to conditions: concentration of 0.05% octenidine, compared with common 0.1%.

Regarding `CCCCCCCCN=c1ccn(CCCCCCCCCCn2ccc(=NCCCCCCCC)cc2)cc1` [octenidine, 1,1′-(1.1 O-decandiyl) to [4-(octylamino)pyridinium]-dichloride], the effectiveness result is listed as “sufficiently good effectiveness” and the irritation entry is given as “lower irritation”.
